Measured values taken from PubChem BioAssay (NCI).
“And” between values parts separate entries of the source, which are not always exact repeats. Equal entries are not always repeated.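 Results reflect a 48-hour exposure of cells in 96-well plates to compound at five concentrations. GI50 = concentration required for 50% inhibition of growth. TGI marks complete inhibition of growth.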

Experiments:
Test in all cases: NCI tumour cell line growth inhibition, 48 h
[1] = test system: OVCAR-4 ovarian
[2] = test system: IGROV1 ovarian
[3] = test system: NCI-H23 lung
[4] = test system: SN12C renal
[5] = test system: K-562 leukemia
[6] = test system: SF-539 CNS
[7] = test system: HS 578T breast
[8] = test system: SK-MEL-5 melanoma
[9] = test system: U251 CNS
[10] = test system: DU-145 prostate

| SMILES | GI50 [1] | TGI [1] | GI50 [2] | TGI [2] | GI50 [3] | TGI [3] | GI50 [4] | TGI [4] | GI50 [5] | TGI [5] | GI50 [6] | TGI [6] | GI50 [7] | TGI [7] | GI50 [8] | TGI [8] | GI50 [9] | TGI [9] | GI50 [10] | TGI [10] |
| --- | --- | --- | --- | --- | --- | --- | --- | --- | --- | --- | --- | --- | --- | --- | --- | --- | --- | --- | --- | --- |
| COc1ccc(-c2nc3sccn3c2-c2ccnc(NCCCNS(=O)(=O)c3ccc(F)cc3)n2)cc1 | 2.49 µM | 8.4 µM | 3.27 µM | > 100 µM | 2.11 µM | 5.5 µM | 2.74 µM | > 100 µM | 1.43 µM | > 100 µM | 2.91 µM | 8.67 µM | 3.22 µM | 9.03 µM | 1.06 µM | 2.28 µM | 3.7 µM | > 100 µM | 3.02 µM | > 100 µM |
| CC(=O)C(C=O)C(C)=O.CC(=O)CC(C)=O.CC(=O)CC(C)=O.[Ru] | 19.5 µM | > 100 µM | 20.4 µM | 73.3 µM | 12.1 µM | 44.3 µM | 1.97 µM | 9.18 µM | 20.7 µM | > 100 µM | 3.8 µM | 26.3 µM | 0.0635 µM | 4.2 µM | 0.0279 µM | 2.1 µM | 29.1 µM | > 100 µM | 37.8 µM | > 100 µM |
| COc1cc(-c2nn(-c3cccc(NC(=O)CCN4CCN(C)CC4)c3)cc2-c2ccncc2)ccc1Cl | 1.73 µM | 11.4 µM | 2.37 µM | 15.6 µM | 2.38 µM | 10.4 µM | 2.05 µM | 8.45 µM | 0.73 µM | 2.53 µM | 1.55 µM | 3.06 µM | 1.41 µM | 6.39 µM | 0.529 µM | 1.86 µM | 1.29 µM | 3.4 µM | 0.997 µM | 6.24 µM |
| OCc1ccc(N(Cc2ccc(F)cc2)CC2CCC2)cc1Cl | 2.18 µM | 14.6 µM | 0.755 µM | 4.05 µM | 10.7 µM | 24.7 µM | 12 µM | 24.7 µM | 6.4 µM | 22.7 µM | 16.3 µM | 30.4 µM | 17.3 µM | 40.3 µM | 13.3 µM | 26.2 µM | 5.43 µM | 19.6 µM | 15 µM | 28.5 µM |
| Cc1[nH]n(-c2cccc(Cl)c2)c(=O)c1/C=C1\C=c2ccccc2=CC1=O | > 100 µM | > 100 µM | 27.1 µM | > 100 µM | 48 µM | > 100 µM | > 100 µM | > 100 µM | 44.7 µM | > 100 µM |  | > 100 µM | 32.6 µM | > 100 µM | > 100 µM | > 100 µM | 40.7 µM | > 100 µM | 70 µM | > 100 µM |
| c1cc2c(c(NC3=NCCN3)c1)CCCC2 |  | > 100 µM |  | > 100 µM |  | > 100 µM |  | > 100 µM |  | > 100 µM |  | > 100 µM |  | > 100 µM |  | > 100 µM |  | > 100 µM |  | > 100 µM |
| Fc1ccc(-c2c(-c3ccncc3)[nH]c3nccnc23)cc1 | > 16.7 µM | > 25 µM | 16.2 µM | > 25 µM | > 17.4 µM | > 25 µM | 7.84 µM | > 25 µM | > 25 µM | > 25 µM | 9.94 µM | > 25 µM | 8.03 µM | > 25 µM | 11 µM | > 25 µM | 12.5 µM | > 25 µM | 7.32 µM | > 22 µM |
| CNCCN(C)Cc1cn[nH]c1-c1ccc(OC2CC(OCCC3CCOCC3)C2)cc1 (stereo unspecified) | > 85 µM | > 100 µM | 48.5 µM | > 100 µM | > 91.7 µM | > 100 µM | > 100 µM | > 100 µM | 33.3 µM | > 100 µM | > 100 µM | > 100 µM | 63.1 µM | > 100 µM | 34 µM | > 100 µM | 55.2 µM | > 100 µM | > 100 µM | > 100 µM |
| N=C1/C(=C2\Nc3ccccc3S2)CC(=O)N1c1ccc(SC(F)F)cc1 | 0.969 µM | 52.2 µM | 5.07 µM | > 100 µM | 18.7 µM | > 100 µM | > 100 µM | > 100 µM | 1.65 µM | > 100 µM | 4.09 µM | 28 µM | 2.17 µM | 29.2 µM | 5.85 µM | > 100 µM | 2.74 µM | 29.7 µM | 77.1 µM | > 100 µM |
| CCN(CCO)CCCOc1ccc2c(Nc3cc(CC(=O)Nc4cccc(F)c4)[nH]n3)ncnc2c1 | 19.4 µM | > 100 µM | 26.1 µM | > 93.1 µM | 17.4 µM | > 53.1 µM | 19.8 µM | > 100 µM | 8.89 µM | > 78.4 µM |  | 22.2 µM and > 2.7 µM | 8.15 µM | > 60.5 µM | 19.8 µM | 48.5 µM and > 3.51 µM | 13.7 µM | 29.4 µM and > 10 µM | 34.5 µM | > 100 µM |
| Cc1cn2c(/C=C3/C(=O)Nc4ccc(Cl)cc43)c(C)nc2s1 | > 39.3 µM | > 54 µM | 2.5 µM | 99.4 µM | 0.0454 µM | 0.37 µM |  | 65 µM |  | > 100 µM | 0.124 µM | 0.692 µM | 0.222 µM | 0.852 µM | 0.125 µM | 14.4 µM | < 0.0235 µM | 28.7 µM | 0.84 µM | > 39.3 µM |
| CC[C@@]1(O)C(=O)NCc2c1cc1n(c2=O)Cc2cc3c(NC(C)=O)cccc3nc2-1 | > 100 µM | > 100 µM | > 100 µM | > 100 µM | > 100 µM | > 100 µM | > 100 µM | > 100 µM | > 100 µM | > 100 µM | > 100 µM | > 100 µM | > 100 µM | > 100 µM | > 100 µM | > 100 µM | > 100 µM | > 100 µM | > 100 µM | > 100 µM |
| O=C1C(Br)=CC2(C=C1Br)CCNc1c(O)c3c4c(c12)=NCCC=4C=N3 |  | 0.211 µM |  | 0.42 µM |  | 0.287 µM |  | 0.344 µM |  | 0.0921 µM |  | 0.557 µM |  | 3.87 µM |  | 0.266 µM |  | 1.07 µM |  | 1.49 µM |
